Earlier results as cited in patent US20160128986A1, “METHODS AND COMPOSITIONS RELATED TO THE USE OF LOW HLB SURFACTANTS IN THE PRODUCTION OF SYNTHETIC NANOCARRIERS COMPRISING A RAPALOG” (Selecta Biosciences, Inc., priority 2014, published 2016).

Details: publicly available information

| Molecule | HLB of Surfactant |
| --- | --- |
| CCCCCCCCCCCCCCCC(=O)O [Palmitic Acid] | 3.2 |
| Polyethylene glycol hexadecyl ether [Brij 52] | 5 |
| Sorbitan monolaurate [SPAN 20] | 8.6 |
| Sorbitan monooleate [SPAN 80] | 4.3 |
| Sorbitan stearate [SPAN 60] | 4.7 |

More lines, now with the values ahead:

| HLB of Surfactant | Molecule |
| --- | --- |
| 12 | CCCCCCCCO[C@@H]1O[C@H](CO)[C@@H](O)[C@H](O)[C@H]1O [octyl β-D-glucopyranoside, Octyl β-D-glucopyranoside] |
| 4 | Polyethylene glycol oleyl ether [Brij 93] |
| 15 | Polysorbate 80 |
| 6.7 | Sorbitan monopalmitate [SPAN 40] |
